Source: patent US20250188069A1, “COMPOUNDS AND METHODS FOR DEGRADING CASEIN KINASE 1 ALPHA” (PIN THERAPEUTICS, INC., priority 2022, published 2025)
Counter-ions that a name gives are not always drawn. Like-named read-outs stand apart in the source and are kept apart here.

Legend:
[1] = test system: MV-4-11 cells; test: AML cell viability assay (RealTime-Glo); type: cell-based; conditions: Homo sapiens, read-out: Cell viability classification
[2] = target: CK1α (Homo sapiens, UniProt P48729+Q96SW2); test: CK1α degradation, flow cytometry in MV4-11 cells; type: cell-based; parameters: CK1α levels were determined in MV-4-11 cells using Jess (Protein Simple); host or cells: MV-4-11; conditions: % reduction of CK1α compared to DMSO, MV4-11 cells at 316 nM for 16 hours, read-out: CK1α degradation classification
Procedure: MV-4-11 cells were obtained from ATCC and grown in IMDM supplemented with 10% FBS. The cells were maintained at 37° C. under 5% CO2.
Compounds of the present disclosure were added to cells (final DMSO concentration of 0.5%) and incubated for 16 hours. CK1α level was determined in MV4-11 cells using flow cytometry (Luminex, Guava EasyCyte Plus). Briefly, cells were prepared with sequential 10% formalin and 70% methanol fixation. […] GuavaSoft Incyte software was used to analyse the flow cytometry data. Protein levels relative to DMSO are calculated for CK1α.
The efficacy of CK1α degradation of other part of compounds of the present disclosure was determined by treating MV4-11 cells at […] (Final DMSO concentration of 0.5%) for 16 hours. Protein levels relative to DMSO are calculated for CK1α.
Protein levels relative to DMSO are calculated for CK1α.

[3] = MV4-11, IC50 class, MV-4-11 cells, RealTime-Glo after 44 hrs of treatment (TABLE 3)
[4] = MV4-11, IC50 class, MV-4-11 cells, RealTime-Glo after 44 hrs of treatment (TABLE 5)

CK1α, sequence (P48729 whole entry): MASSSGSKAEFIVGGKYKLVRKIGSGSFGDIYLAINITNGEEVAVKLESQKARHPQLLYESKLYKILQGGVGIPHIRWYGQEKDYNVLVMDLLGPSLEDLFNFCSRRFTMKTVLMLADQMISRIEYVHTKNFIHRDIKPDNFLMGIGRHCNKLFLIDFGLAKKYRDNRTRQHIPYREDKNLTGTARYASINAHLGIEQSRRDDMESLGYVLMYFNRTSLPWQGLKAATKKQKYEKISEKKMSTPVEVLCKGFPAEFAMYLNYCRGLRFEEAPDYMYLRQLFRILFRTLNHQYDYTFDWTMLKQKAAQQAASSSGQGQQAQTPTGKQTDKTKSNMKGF
CK1α, sequence (Q96SW2 whole entry): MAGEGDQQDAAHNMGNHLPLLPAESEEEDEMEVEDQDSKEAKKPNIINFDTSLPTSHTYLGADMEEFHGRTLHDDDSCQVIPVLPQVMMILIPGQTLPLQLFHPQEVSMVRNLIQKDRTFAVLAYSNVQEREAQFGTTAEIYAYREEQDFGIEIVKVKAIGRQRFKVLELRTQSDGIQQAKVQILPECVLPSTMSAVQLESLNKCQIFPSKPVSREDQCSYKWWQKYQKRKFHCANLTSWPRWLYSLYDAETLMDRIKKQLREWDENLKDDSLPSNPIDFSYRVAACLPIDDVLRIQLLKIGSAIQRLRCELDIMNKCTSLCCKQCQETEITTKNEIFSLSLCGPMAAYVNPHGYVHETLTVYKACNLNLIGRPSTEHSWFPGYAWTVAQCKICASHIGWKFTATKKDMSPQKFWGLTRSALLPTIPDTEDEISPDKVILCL
CK1α, sequence (Q16531 whole entry partner): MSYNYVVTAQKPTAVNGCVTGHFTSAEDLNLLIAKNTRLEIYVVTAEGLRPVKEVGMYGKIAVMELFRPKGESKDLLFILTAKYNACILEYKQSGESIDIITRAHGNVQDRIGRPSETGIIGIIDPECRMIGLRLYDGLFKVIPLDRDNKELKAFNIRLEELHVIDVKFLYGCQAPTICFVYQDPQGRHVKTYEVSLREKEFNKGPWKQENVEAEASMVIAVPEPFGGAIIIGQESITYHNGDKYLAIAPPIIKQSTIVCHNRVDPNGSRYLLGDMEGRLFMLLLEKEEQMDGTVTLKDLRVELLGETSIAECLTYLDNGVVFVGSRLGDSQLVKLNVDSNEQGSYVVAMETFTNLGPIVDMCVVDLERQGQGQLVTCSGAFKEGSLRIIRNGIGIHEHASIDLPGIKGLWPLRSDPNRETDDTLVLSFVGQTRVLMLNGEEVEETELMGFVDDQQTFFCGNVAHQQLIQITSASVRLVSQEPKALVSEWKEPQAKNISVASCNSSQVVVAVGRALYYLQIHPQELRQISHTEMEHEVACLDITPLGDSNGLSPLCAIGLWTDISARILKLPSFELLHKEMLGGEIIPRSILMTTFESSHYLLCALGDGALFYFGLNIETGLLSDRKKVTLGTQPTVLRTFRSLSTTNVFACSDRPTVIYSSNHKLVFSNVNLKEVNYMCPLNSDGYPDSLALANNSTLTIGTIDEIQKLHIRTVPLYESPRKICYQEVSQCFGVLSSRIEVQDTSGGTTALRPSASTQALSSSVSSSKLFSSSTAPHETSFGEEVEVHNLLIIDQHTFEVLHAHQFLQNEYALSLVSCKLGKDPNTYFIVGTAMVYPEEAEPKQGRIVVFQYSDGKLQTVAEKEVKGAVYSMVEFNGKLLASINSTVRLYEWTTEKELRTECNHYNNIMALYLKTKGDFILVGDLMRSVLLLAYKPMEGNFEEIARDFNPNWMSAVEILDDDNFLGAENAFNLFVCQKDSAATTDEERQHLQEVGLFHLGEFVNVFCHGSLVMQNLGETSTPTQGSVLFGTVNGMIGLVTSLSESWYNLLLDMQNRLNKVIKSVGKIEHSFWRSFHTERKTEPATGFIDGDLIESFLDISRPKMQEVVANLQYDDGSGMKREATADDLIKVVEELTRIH

SMILES | IC50 [1, 3] | Dmax at 0.316 µM [2] | IC50 [1, 4] | IC50 ([1]; MV4-11, 44 h)
C/C=C/CCN(CCCCN)c1cccc2c1CN(C1CCC(=O)NC1=O)C2=O (stereo not drawn) [Compound 93, (E)-3-(4-((4-aminobutyl)(pent-3-en-1-yl)amino)-1-oxoisoindolin-2-yl)piperidine-2,6-dione hydrochloride] | < 100 nM | > 75% |  | 
C/C=C\CCN(CCCCN)c1cccc2c1CN(C1CCC(=O)NC1=O)C2=O (stereo not drawn) [Compound 94, (Z)-3-(4-((4-aminobutyl)(pent-3-en-1-yl)amino)-1-oxoisoindolin-2-yl)piperidine-2,6-dione] | < 100 nM | > 75% |  | 
CC#CCCN(CCCCN)c1cccc2c1CN(C1CCC(=O)NC1=O)C2=O (stereo not drawn) [Compound 95, 3-(4-((4-aminobutyl)(pent-3-yn-1-yl)amino)-1-oxoisoindolin-2-yl)piperidine-2,6-dione, HCl] | 100 to 1000 nM | < 50% |  | 
CCCCCN(CCCCNCCCC)c1cccc2c1CN(C1CCC(=O)NC1=O)C2=O (stereo not drawn) [Compound 166, 3-(4-((4-(butylamino)butyl)(pentyl)amino)-1-oxoisoindolin-2-yl)piperidine-2,6-dione, HCl] |  | > 75% |  | 100 to 1000 nM
CCCCCN(CCCCNCCC(C)C)c1cccc2c1CN(C1CCC(=O)NC1=O)C2=O (stereo not drawn) [Compound 167, 3-(4-((4-(isopentylamino)butyl)(pentyl)amino)-1-oxoisoindolin-2-yl)piperidine-2,6-dione. HCl] | 100 to 1000 nM | > 75% |  | 
CCCCCN(c1cccc2c1CN(C1CCC(=O)NC1=O)C2=O)[C@H]1CC[C@H](NC(C)=O)CC1 (stereo partly drawn) [Compound 168, N-((1r,4r)-4-((2-(2,6-dioxopiperidin-3-yl)-1-oxoisoindolin-4-yl)(pentyl)amino)cyclohexyl)acetamide] | 100 to 1000 nM | > 75% |  | 
CCCCCN(c1cccc2c1CN(C1CCC(=O)NC1=O)C2=O)[C@H]1CC[C@H](NC)CC1 (stereo partly drawn) [Compound 169, 3-(4-(((1R,4R)-4-(methylamino)cyclohexyl)(pentyl)amino)-1-oxoisoindolin-2-yl)piperidine-2,6-dione hydrochloride] |  | > 75% |  | < 100 nM
CC(C)(C)CCN(CCCCN)c1cccc2c1CN(C1CCC(=O)NC1=O)C2=O (stereo not drawn) [Compound 223, 3-(4-((4-aminobutyl)(3,3-dimethylbutyl)amino)-1-oxoisoindolin-2-yl)piperidine-2,6-dione] | < 100 nM | > 75% |  | 
N[C@H]1CC[C@H](N(CC2CC2)c2cccc3c2CN(C2CCC(=O)NC2=O)C3=O)CC1 (stereo partly drawn) [Compound 235, 3-(4-(((1r,4r)-4-aminocyclohexyl)(cyclopropylmethyl)amino)-1-oxoisoindolin-2-yl)piperidine-2,6-dione hydrochloride] | < 100 nM | > 75% |  | 
CC(C)CN(c1cccc2c1CN(C1CCC(=O)NC1=O)C2=O)[C@H]1CC[C@H](N)CC1 (stereo partly drawn) [Compound 236, 3-(4-(((1r,4r)-4-aminocyclohexyl)(isobutyl)amino)-1-oxoisoindolin-2-yl)piperidine-2,6-dione. HCl] | 100 to 1000 nM | > 75% |  | 
N[C@H]1CC[C@H](N(CCC2CC2)c2cccc3c2CN(C2CCC(=O)NC2=O)C3=O)CC1 (stereo partly drawn) [Compound 237, 3-(4-(((1r,4r)-4-aminocyclohexyl)(2-cyclopropylethyl)amino)-1-oxoisoindolin-2-yl)piperidine-2,6-dione, HCl] | < 100 nM | > 75% |  | 
CC(C)CCN(c1cccc2c1CN(C1CCC(=O)NC1=O)C2=O)[C@H]1CC[C@H](N)CC1 (stereo partly drawn) [Compound 238, 3-(4-(((1r,4r)-4-aminocyclohexyl)(isopentyl)amino)-1-oxoisoindolin-2-yl)piperidine-2,6-dione hydrochloride] | < 100 nM | > 75% |  | 
N[C@H]1CC[C@H](N(CCC2CCNCC2)c2cccc3c2CN(C2CCC(=O)NC2=O)C3=O)CC1 (stereo partly drawn) [Compound 239, 3-(4-(((1r,4r)-4-aminocyclohexyl) (2-(piperidin-4-yl)ethyl)amino)-1-oxoisoindolin-2-yl) piperidine-2,6-dione, 2HCl] | > 1000 nM | < 50% |  | 
N[C@H]1CC[C@H](N(CCC2CCOCC2)c2cccc3c2CN(C2CCC(=O)NC2=O)C3=O)CC1 (stereo partly drawn) [Compound 240, 3-(4-(((1r,4r)-4-aminocyclohexyl)(2-(tetrahydro-2H-pyran-4-yl)ethyl)amino)-1-oxoisoindolin-2-yl)piperidine-2,6-dione hydrochloride] | 100 to 1000 nM | < 50% |  | 
N[C@H]1CC[C@H](N(CCCC2CCNCC2)c2cccc3c2CN(C2CCC(=O)NC2=O)C3=O)CC1 (stereo partly drawn) [Compound 241, 3-(4-(((1r,4r)-4-aminocyclohexyl)(3-(piperidin-4-yl)propyl)amino)-1-oxoisoindolin-2-yl)piperidine-2,6-dione, 2HCl] | > 1000 nM | < 50% |  | 
N[C@H]1CC[C@H](N(CCCC2CCOCC2)c2cccc3c2CN(C2CCC(=O)NC2=O)C3=O)CC1 (stereo partly drawn) [Compound 242, 3-(4-(((1r,4r)-4-aminocyclohexyl)(3-(tetrahydro-2H-pyran-4-yl)propyl)amino)-1-oxoisoindolin-2-yl)piperidine-2,6-dione hydrochloride] | < 100 nM | > 75% |  | 
N[C@H]1CC[C@H](N(CCN2CCNCC2)c2cccc3c2CN(C2CCC(=O)NC2=O)C3=O)CC1 (stereo partly drawn) [Compound 243, 3-(4-(((1r,4r)-4-aminocyclohexyl)(2-(piperazin-1-yl)ethyl)amino)-1-oxoisoindolin-2-yl)piperidine-2,6-dione, 3HCl] | > 1000 nM | < 50% |  | 

Now from value to molecule, other results behind:

IC50 [1, 3] | Dmax at 0.316 µM [2] | IC50 [1, 4] | SMILES | IC50 ([1]; MV4-11, 44 h)
> 1000 nM | < 50% |  | N[C@H]1CC[C@H](N(CCN2CCOCC2)c2cccc3c2CN(C2CCC(=O)NC2=O)C3=O)CC1 (stereo partly drawn) [Compound 244, 3-(4-(((1r,4r)-4-aminocyclohexyl)(2-morpholinoethyl)amino)-1-oxoisoindolin-2-yl)piperidine-2,6-dione, 2HCl] | 
> 1000 nM | < 50% |  | N[C@H]1CC[C@H](N(CCCN2CCNCC2)c2cccc3c2CN(C2CCC(=O)NC2=O)C3=O)CC1 (stereo partly drawn) [Compound 245, 3-(4-(((1r,4r)-4-aminocyclohexyl)(3-(piperazin-1-yl)propyl)amino)-1-oxoisoindolin-2-yl)piperidine-2,6-dione, 3HCl] | 
> 1000 nM | < 50% |  | N[C@H]1CC[C@H](N(CCCN2CCOCC2)c2cccc3c2CN(C2CCC(=O)NC2=O)C3=O)CC1 (stereo partly drawn) [Compound 246, 3-(4-(((1r,4r)-4-aminocyclohexyl)(3-morpholinopropyl)amino)-1-oxoisoindolin-2-yl)piperidine-2,6-dione dihydrochloride] | 
100 to 1000 nM | 50 to 75% |  | CCCCCN(CCC1(CN)CCCCC1)c1cccc2c1CN(C1CCC(=O)NC1=O)C2=O (stereo not drawn) [Compound 255, 3-(4-((2-(1-(aminomethyl)cyclohexyl)ethyl) (pentyl)amino)-1-oxoisoindolin-2-yl) piperidine-2,6-dione, Formic Acid] | 
< 100 nM | > 75% |  | CC(C)(C)CCN(c1cccc2c1CN(C1CCC(=O)NC1=O)C2=O)[C@H]1CC[C@H](N)CC1 (stereo partly drawn) [Compound 267, 3-(4-(((1R,4R)-4-aminocyclohexyl)(3,3-dimethylbutyl)amino)-1-oxoisoindolin-2-yl)piperidine-2,6-dione hydrochloride] | 
< 100 nM | > 75% |  | CC(C)(C)CCCN(c1cccc2c1CN(C1CCC(=O)NC1=O)C2=O)[C@H]1CC[C@H](N)CC1 (stereo partly drawn) [Compound 268, 3-(4-(((1r,4r)-4-aminocyclohexyl)(4,4-dimethylpentyl)amino)-1-oxoisoindolin-2-yl)piperidine-2,6-dione, HCl] | 
> 1000 nM | 50 to 75% |  | CC(=O)N[C@H]1CC[C@H](N(CCCCN)c2cccc3c2CN(C2CCC(=O)NC2=O)C3=O)CC1 (stereo partly drawn) [Compound 273, N-((1r,4r)-4-((4-aminobutyl)(2-(2,6-dioxopiperidin-3-yl)-1-oxoisoindolin-4-yl)amino)cyclohexyl)acetamide, 2HCl] | 
 |  | > 1000 nM | O=C1CCC(N2Cc3c(cccc3N(CCC3CC3)[C@H]3CC[C@@H](N4CC[C@@H](C(F)(F)F)C4)CC3)C2=O)C(=O)N1 (stereo partly drawn) [Compound 713A, 3-(4-((2-cyclopropylethyl)((1S,4s)-4-((R)-3-(trifluoromethyl)pyrrolidin-1-yl)cyclohexyl)amino)-1-oxoisoindolin-2-yl)piperidine-2,6-dione bis(2,2,2-trifluoroacetate)] | 
 |  | > 1000 nM | CN1CCC(CN(CCC2CC2)c2cccc3c2CN(C2CCC(=O)NC2=O)C3=O)CC1 (stereo not drawn) [Compound 714, 3-(4-((2-cyclopropylethyl)((1-methylpiperidin-4-yl)methyl)amino)-1-oxoisoindolin-2-yl)piperidine-2,6-dione] | 
 |  | > 1000 nM | O=C1CCC(N2Cc3c(cccc3N(CCC3CC3)[C@H]3CC[C@@H](N4CCC(F)(F)CC4)CC3)C2=O)C(=O)N1 (stereo partly drawn) [Compound 716A, 3-(4-((2-cyclopropylethyl)((1s,4s)-4-(4,4-difluoropiperidin-1-yl)cyclohexyl)amino)-1-oxoisoindolin-2-yl)piperidine-2,6-dione tris(2,2,2-trifluoroacetate)] | 
